PubChem BioAssay (NCI)
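Following 48 hours of exposure in 96-well plates, responses at five concentrations were used to interpolate endpoints linearly. At the TGI there is no net growth.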

The compounds below were run on HS 578T breast (assay: DTP human tumour cell line panel, 48 h).
With `COc1cccc2c1OC(c1ccc(Cl)cc1)C([N+](=O)[O-])=C2` (stereo not drawn) the TGI was 13.4 µM. `CCCCCCCCCC1(N=[N+]=[N-])C(=O)c2ccccc2N(C)C1=O` (stereo not drawn) was tested, and the TGI was 83.8 µM. `C[N+](CCCl)(CCCl)Cc1cccc2cccc([N+](=O)[O-])c12` was tested, and the TGI was > 100 µM. In the case of `O=C1NC(=O)C(c2c[nH]c3ccccc23)=C1c1cnc[nH]1`, the TGI is reported as > 100 µM. With `CC(=O)O[C@H]1C[C@H]2[C@@H](OC(C)=O)/C=C3\C[C@](C)(C(=O)[C@H](O)C(=C1C)C2(C)C)[C@@H](O)C[C@@H]3OC(=O)[C@H](O)[C@H](c1ccccc1)N(C)C` the TGI was > 100 µM. With `Nc1ncnc2c1ccn2C/C=C\CO` the TGI was > 100 µM. In the case of `Cc1c([N+](=O)[O-])ccc2c(NCCCN(C)C)ccnc12`, the TGI is reported as 74.1 µM. In the case of `OCCCCCCCCCCCOc1ccc(C2OCC3(CO2)COC(c2ccc(OCCCCCCCCCCCO)cc2)OC3)cc1` (stereo not drawn), the TGI is reported as > 50 µM. Compound `CC(=O)c1cccc(NC(=O)C(=O)NNc2n[nH]c(=S)n2N)c1` has a TGI of 7.48 µM. `COC(=O)c1ccc(C(=O)NC(Cc2ccc(Oc3cc(CC(NC(=O)c4ccccc4C(=O)OC)C(=O)OC)ccc3OC)cc2)C(=O)OC)cc1` (stereo not drawn) showed a TGI of 39.3 µM. In the case of `O=c1cc(N2CCOCC2)[nH]c(=O)n1-c1ccc(F)cc1`, the TGI is reported as > 100 µM. For `O=C(O)CC1NC(/C(=C/c2ccccc2)NC(=O)c2ccccc2)OC1=O` (stereo not drawn), the TGI was > 100 µM. For `CNC(C#N)c1ccc(OC)cc1` (stereo not drawn), the TGI was > 100 µM. `CC(C)(Br)C(Br)CCC1(C2CO2)CO1` (stereo not drawn) was tested, and the TGI was > 5 µM. In the case of `CCOC(=O)c1c(-c2ccc(OC)cc2)c(C#N)c(=S)n(C2OC(COC(C)=O)C(OC(C)=O)C(OC(C)=O)C2OC(C)=O)c1-c1ccccc1` (stereo not drawn), the TGI is reported as > 100 µM. `CC1(c2cccs2)CC(c2cccs2)=C(C#N)C(=C(C#N)C#N)N1` (stereo not drawn) gave a TGI of 69.5 µM. In the case of `CCCCc1c(N(C)C)c(OC(C)=O)c(-c2cn(C)c3ccccc23)oc1=O`, the TGI is reported as > 100 µM. For `CCCC(=O)n1[nH]c(=O)n(-c2ccc(Cl)cc2)c1=O`, the TGI was > 100 µM. Work on `CC(C)(C)[Si](C)(C)OCC1OC(n2ccc(N)nc2=O)C(O[Si](C)(C)C(C)(C)C)C1O[Si](C)(C)C(C)(C)C` (stereo not drawn) yielded a TGI of 7.89 µM. For `O=C(O)c1ccc(N=C(C(=Nc2ccc(C(=O)O)cc2)c2ccccc2)c2ccccc2)cc1`, the TGI was > 100 µM.

These compounds were tested on K-562 leukemia (assay: DTP human tumour cell line panel, 48 h).
With `COc1cccc2c1OC(c1ccc(Cl)cc1)C([N+](=O)[O-])=C2` (stereo not drawn) the TGI was 24.3 µM. In the case of `CCCCCCCCCC1(N=[N+]=[N-])C(=O)c2ccccc2N(C)C1=O` (stereo not drawn), the TGI is reported as > 100 µM. In the case of `C[N+](CCCl)(CCCl)Cc1cccc2cccc([N+](=O)[O-])c12`, the TGI is reported as > 100 µM. With `O=C1NC(=O)C(c2c[nH]c3ccccc23)=C1c1cnc[nH]1` the TGI was > 100 µM. In the case of `CC(=O)O[C@H]1C[C@H]2[C@@H](OC(C)=O)/C=C3\C[C@](C)(C(=O)[C@H](O)C(=C1C)C2(C)C)[C@@H](O)C[C@@H]3OC(=O)[C@H](O)[C@H](c1ccccc1)N(C)C`, the TGI is reported as > 100 µM. With `Nc1ncnc2c1ccn2C/C=C\CO` the TGI was > 100 µM. `Cc1c([N+](=O)[O-])ccc2c(NCCCN(C)C)ccnc12` was tested, and the TGI was > 100 µM. `OCCCCCCCCCCCOc1ccc(C2OCC3(CO2)COC(c2ccc(OCCCCCCCCCCCO)cc2)OC3)cc1` (stereo not drawn) was tested, and the TGI was > 50 µM. In the case of `CC(=O)c1cccc(NC(=O)C(=O)NNc2n[nH]c(=S)n2N)c1`, the TGI is reported as 27.6 µM. In the case of `COC(=O)c1ccc(C(=O)NC(Cc2ccc(Oc3cc(CC(NC(=O)c4ccccc4C(=O)OC)C(=O)OC)ccc3OC)cc2)C(=O)OC)cc1` (stereo not drawn), the TGI is reported as > 100 µM. In the case of `O=c1cc(N2CCOCC2)[nH]c(=O)n1-c1ccc(F)cc1`, the TGI is reported as > 100 µM. With `O=C(O)CC1NC(/C(=C/c2ccccc2)NC(=O)c2ccccc2)OC1=O` (stereo not drawn) the TGI was 56 µM. `CNC(C#N)c1ccc(OC)cc1` (stereo not drawn) was tested, and the TGI was > 100 µM. For `CC(C)(Br)C(Br)CCC1(C2CO2)CO1` (stereo not drawn), the TGI was > 5 µM. `CCOC(=O)c1c(-c2ccc(OC)cc2)c(C#N)c(=S)n(C2OC(COC(C)=O)C(OC(C)=O)C(OC(C)=O)C2OC(C)=O)c1-c1ccccc1` (stereo not drawn) was tested, and the TGI was > 100 µM. With `CC1(c2cccs2)CC(c2cccs2)=C(C#N)C(=C(C#N)C#N)N1` (stereo not drawn) the TGI was > 100 µM. `CCCC(=O)n1[nH]c(=O)n(-c2ccc(Cl)cc2)c1=O` was tested, and the TGI was > 100 µM. `O=C(O)c1ccc(N=C(C(=Nc2ccc(C(=O)O)cc2)c2ccccc2)c2ccccc2)cc1` was tested, and the TGI was > 100 µM.

Each compound was assayed on KM12 colon (assay: DTP human tumour cell line panel, 48 h).
Work on `COc1cccc2c1OC(c1ccc(Cl)cc1)C([N+](=O)[O-])=C2` (stereo not drawn) yielded a TGI of 4.84 µM. In the case of `CCCCCCCCCC1(N=[N+]=[N-])C(=O)c2ccccc2N(C)C1=O` (stereo not drawn), the TGI is reported as > 100 µM. `C[N+](CCCl)(CCCl)Cc1cccc2cccc([N+](=O)[O-])c12` was tested, and the TGI was > 100 µM. `O=C1NC(=O)C(c2c[nH]c3ccccc23)=C1c1cnc[nH]1` was tested, and the TGI was > 100 µM. In the case of `CC(=O)O[C@H]1C[C@H]2[C@@H](OC(C)=O)/C=C3\C[C@](C)(C(=O)[C@H](O)C(=C1C)C2(C)C)[C@@H](O)C[C@@H]3OC(=O)[C@H](O)[C@H](c1ccccc1)N(C)C`, the TGI is reported as > 100 µM. For `Nc1ncnc2c1ccn2C/C=C\CO`, the TGI was > 100 µM. `Cc1c([N+](=O)[O-])ccc2c(NCCCN(C)C)ccnc12` gave a TGI of 32.1 µM. `OCCCCCCCCCCCOc1ccc(C2OCC3(CO2)COC(c2ccc(OCCCCCCCCCCCO)cc2)OC3)cc1` (stereo not drawn) was tested, and the TGI was > 50 µM. For `CC(=O)c1cccc(NC(=O)C(=O)NNc2n[nH]c(=S)n2N)c1`, the TGI was 30.9 µM. `COC(=O)c1ccc(C(=O)NC(Cc2ccc(Oc3cc(CC(NC(=O)c4ccccc4C(=O)OC)C(=O)OC)ccc3OC)cc2)C(=O)OC)cc1` (stereo not drawn) was tested, and the TGI was > 100 µM. In the case of `O=c1cc(N2CCOCC2)[nH]c(=O)n1-c1ccc(F)cc1`, the TGI is reported as > 100 µM. Compound `O=C(O)CC1NC(/C(=C/c2ccccc2)NC(=O)c2ccccc2)OC1=O` (stereo not drawn) has a TGI of 34.1 µM. With `CNC(C#N)c1ccc(OC)cc1` (stereo not drawn) the TGI was > 100 µM. For `CCOC(=O)c1c(-c2ccc(OC)cc2)c(C#N)c(=S)n(C2OC(COC(C)=O)C(OC(C)=O)C(OC(C)=O)C2OC(C)=O)c1-c1ccccc1` (stereo not drawn), the TGI was > 100 µM. `CC1(c2cccs2)CC(c2cccs2)=C(C#N)C(=C(C#N)C#N)N1` (stereo not drawn) showed a TGI of 32.3 µM. `CCCCc1c(N(C)C)c(OC(C)=O)c(-c2cn(C)c3ccccc23)oc1=O` gave a TGI of 37.5 µM. With `CCCC(=O)n1[nH]c(=O)n(-c2ccc(Cl)cc2)c1=O` the TGI was > 100 µM. In the case of `O=C(O)c1ccc(N=C(C(=Nc2ccc(C(=O)O)cc2)c2ccccc2)c2ccccc2)cc1`, the TGI is reported as > 100 µM.

These compounds were tested on MDA-MB-435 (assay: DTP human tumour cell line panel, 48 h).
For `COc1cccc2c1OC(c1ccc(Cl)cc1)C([N+](=O)[O-])=C2` (stereo not drawn), the TGI was 8.68 µM. `CCCCCCCCCC1(N=[N+]=[N-])C(=O)c2ccccc2N(C)C1=O` (stereo not drawn) was tested, and the TGI was 6.88 µM. `C[N+](CCCl)(CCCl)Cc1cccc2cccc([N+](=O)[O-])c12` was tested, and the TGI was > 100 µM. For `O=C1NC(=O)C(c2c[nH]c3ccccc23)=C1c1cnc[nH]1`, the TGI was > 100 µM. `CC(=O)O[C@H]1C[C@H]2[C@@H](OC(C)=O)/C=C3\C[C@](C)(C(=O)[C@H](O)C(=C1C)C2(C)C)[C@@H](O)C[C@@H]3OC(=O)[C@H](O)[C@H](c1ccccc1)N(C)C` was tested, and the TGI was > 100 µM. For `Nc1ncnc2c1ccn2C/C=C\CO`, the TGI was > 100 µM. In the case of `Cc1c([N+](=O)[O-])ccc2c(NCCCN(C)C)ccnc12`, the TGI is reported as 34.9 µM. For `OCCCCCCCCCCCOc1ccc(C2OCC3(CO2)COC(c2ccc(OCCCCCCCCCCCO)cc2)OC3)cc1` (stereo not drawn), the TGI was > 50 µM. `COC(=O)c1ccc(C(=O)NC(Cc2ccc(Oc3cc(CC(NC(=O)c4ccccc4C(=O)OC)C(=O)OC)ccc3OC)cc2)C(=O)OC)cc1` (stereo not drawn) was tested, and the TGI was > 100 µM. `O=c1cc(N2CCOCC2)[nH]c(=O)n1-c1ccc(F)cc1` was tested, and the TGI was > 100 µM. `O=C(O)CC1NC(/C(=C/c2ccccc2)NC(=O)c2ccccc2)OC1=O` (stereo not drawn) was tested, and the TGI was 67 µM. For `CNC(C#N)c1ccc(OC)cc1` (stereo not drawn), the TGI was > 100 µM. With `CC(C)(Br)C(Br)CCC1(C2CO2)CO1` (stereo not drawn) the TGI was > 5 µM. For `CCOC(=O)c1c(-c2ccc(OC)cc2)c(C#N)c(=S)n(C2OC(COC(C)=O)C(OC(C)=O)C(OC(C)=O)C2OC(C)=O)c1-c1ccccc1` (stereo not drawn), the TGI was > 100 µM. For `CC1(c2cccs2)CC(c2cccs2)=C(C#N)C(=C(C#N)C#N)N1` (stereo not drawn), the TGI was 31.8 µM. In the case of `CCCCc1c(N(C)C)c(OC(C)=O)c(-c2cn(C)c3ccccc23)oc1=O`, the TGI is reported as 47.8 µM. `CCCC(=O)n1[nH]c(=O)n(-c2ccc(Cl)cc2)c1=O` was tested, and the TGI was > 100 µM. In the case of `O=C(O)c1ccc(N=C(C(=Nc2ccc(C(=O)O)cc2)c2ccccc2)c2ccccc2)cc1`, the TGI is reported as > 100 µM.

These compounds were tested on MOLT-4 leukemia (assay: DTP human tumour cell line panel, 48 h).
In the case of `COc1cccc2c1OC(c1ccc(Cl)cc1)C([N+](=O)[O-])=C2` (stereo not drawn), the TGI is reported as 8.58 µM. For `C[N+](CCCl)(CCCl)Cc1cccc2cccc([N+](=O)[O-])c12`, the TGI was > 100 µM. For `O=C1NC(=O)C(c2c[nH]c3ccccc23)=C1c1cnc[nH]1`, the TGI was > 100 µM. `CC(=O)O[C@H]1C[C@H]2[C@@H](OC(C)=O)/C=C3\C[C@](C)(C(=O)[C@H](O)C(=C1C)C2(C)C)[C@@H](O)C[C@@H]3OC(=O)[C@H](O)[C@H](c1ccccc1)N(C)C` was tested, and the TGI was > 100 µM. For `Nc1ncnc2c1ccn2C/C=C\CO`, the TGI was > 100 µM. In the case of `Cc1c([N+](=O)[O-])ccc2c(NCCCN(C)C)ccnc12`, the TGI is reported as > 100 µM. For `OCCCCCCCCCCCOc1ccc(C2OCC3(CO2)COC(c2ccc(OCCCCCCCCCCCO)cc2)OC3)cc1` (stereo not drawn), the TGI was > 50 µM. In the case of `CC(=O)c1cccc(NC(=O)C(=O)NNc2n[nH]c(=S)n2N)c1`, the TGI is reported as 18.3 µM. With `COC(=O)c1ccc(C(=O)NC(Cc2ccc(Oc3cc(CC(NC(=O)c4ccccc4C(=O)OC)C(=O)OC)ccc3OC)cc2)C(=O)OC)cc1` (stereo not drawn) the TGI was > 100 µM. For `O=c1cc(N2CCOCC2)[nH]c(=O)n1-c1ccc(F)cc1`, the TGI was > 100 µM. Compound `O=C(O)CC1NC(/C(=C/c2ccccc2)NC(=O)c2ccccc2)OC1=O` (stereo not drawn) has a TGI of 45.1 µM. In the case of `CNC(C#N)c1ccc(OC)cc1` (stereo not drawn), the TGI is reported as > 100 µM. In the case of `CC(C)(Br)C(Br)CCC1(C2CO2)CO1` (stereo not drawn), the TGI is reported as > 5 µM. With `CCOC(=O)c1c(-c2ccc(OC)cc2)c(C#N)c(=S)n(C2OC(COC(C)=O)C(OC(C)=O)C(OC(C)=O)C2OC(C)=O)c1-c1ccccc1` (stereo not drawn) the TGI was > 100 µM.
